Residues, ends and D or L forms follow the SMILES beside them. *: point of attachment. Cbz = O=C(OCc1ccccc1)*; CH2F = FC*
Tests used:
[1] = biological target: PKA; details: read-out: Ki protein kinase A; cited from earlier work
[2] = system: RGC-5 cells; test: Morphological differentiation and neurite count of RGC-5 cells; details: for rounding of the cell soma: specific kinase inhibitors on RGC-5 cells; for morphological evidence of differentiation: apoptosis inducer
Protocol: Cell culture: RGC-5 cells were cultured in Dulbecco's modification of Eagle's medium (DMEM; Mediatech, Inc.; Herndon, Calif.) containing 1 mg/L glucose with L-glutamine, supplemented with 10% FBS, 100 U/ml penicillin and 100 μg/ml streptomycin. Cells were incubated at 37° C. in humidified 5% CO2.
Pharmacological agents were used to induce or to inhibit various signaling pathways within RGC-5 cells. Cells were replated on 12 mm round cover glass in 24 well plates 24 hours prior to pharmacological treatment. Drugs were added for varying lengths of time and then processed for immunocytochemistry.
Cell morphology: Photomicrographs were taken at 400× total magnification with Nomarski optics, digitized as above, and stored as JPEG images. The pictures were then batch analyzed off-line to assess the development of neurites. A total of fifty cells from each condition were analyzed. The fifty cells assessed for neurite outgrowth in each condition were selected to include all cells in each photomicrograph for which the neurite tree was visible, and continuing with a new photomicrograph until fifty cells were analyzed. Projections from the cell were classified as neurites if they were equal or greater in length than the cell soma. Only branches arising from the soma were counted. The neurite counts were expressed as mean±S.E.M.

[3] = biological target: Rho-Kinase; details: cited from earlier work
[4] = system: RGC-5 cells; test: Nuclear condensation changes of apoptosis (Hoechst 33258); format: cell-based, rat; details: twenty-four hour incubation, Hoechst 33258 10 μg/ml for thirty minutes
[5] = system: RGC-5 cells; test: Whole-cell voltage-clamp recording of RGC-5 cells; format: cell-based, rat; details: for conductance of outward currents at +90 mV: after leak subtraction
Protocol: No series resistance compensation was used. Currents were low-pass filtered at 1-5 kHz with a four-pole Bessel filter, and digitized at a rate no less than twice the filter frequency. […] Analysis and curve fitting was also performed using AxoGraph.
Voltage-gated currents were studied by applying 10 ms voltage steps from −100 to +90 mV in 10 mV increments, from a holding potential of −60 mV. This protocol was run 2-6 times on each cell and the currents evoked at each potential were averaged. Passive leak and capacitive currents were removed by scaling the average current evoked at −70 mV, and subtracting the result from the average current obtained at each voltage. Current amplitudes were measured at steady-state (i.e., near the end of the voltage step), and the slope conductance was computed as the difference between successive amplitudes, divided by the 10 mV step increment.

[6] = system: focal adhesion kinase (FAK) S722; test: Kinetworks KPSS 2.1 phosphorylation screen, FAK S722; format: cell-based, rat; details: 1 μM for 5 minutes
Protocol: (§1) Cells were washed with ice-cold PBS, scraped, and centrifuged at 3,200 g for five minutes. The pellets were resuspended in lysis buffer (Kinexus Bioinformatics; Vancouver, BC, Canada) supplemented with 5 mM pepstatin A (Roche; Indianapolis, Ind.), and Complete mini protease inhibitor cocktail (Roche). The suspensions were sonicated on ice for two 15-second bursts, followed by centrifugation at 100,000 g for 30 minutes at 4° C. […] These were then transferred to nitrocellulose membranes. Using a twenty-lane multiblotter (BioRad; Hercules, Calif.), the membranes were incubated with different mixtures of up to three antibodies per lane that react with a distinct subset of at least thirty-seven known phosphorylated sites of cell signaling proteins of distinct molecular masses. After further incubation with a mixture of relevant HRP conjugated secondary antibodies (Santa Cruz Biotechnology), the blots were developed using ECL Plus reagent (Amersham Pharmacia; Piscataway, N.J.) and signals quantified using Quantity One software (BioRad). Detailed information and protocols of the Kinetworks™ analysis can be found at the Kinexus Bioinformatics Corporations website.

[7] = system: c-Kit Y703; test: Kinetworks KPSS 2.1 phosphorylation screen, c-Kit Y703; format: cell-based, rat; details: 1 μM for 5 minutes
Protocol: (§2) Analysis of kinasephosphorylation targets: Total cell lysates were prepared as described in Zhang H, et al., J Biol Chem 276:6905-6908 (2001). Cells were washed with ice-cold PBS, scraped, and centrifuged at 3,200 g for five minutes. The pellets were resuspended in lysis buffer (Kinexus Bioinformatics; Vancouver, BC, Canada) supplemented with 5 mM pepstatin A (Roche; Indianapolis, Ind.), and Complete mini protease inhibitor cocktail (Roche). The suspensions were sonicated on ice for two 15-second bursts, followed by centrifugation at 100,000 g for 30 minutes at 4° C. […] Bradford M M, Anal Biochem 72:248-254 (1976). These were then transferred to nitrocellulose membranes. Using a twenty-lane multiblotter (BioRad; Hercules, Calif.), the membranes were incubated with different mixtures of up to three antibodies per lane that react with a distinct subset of at least thirty-seven known phosphorylated sites of cell signaling proteins of distinct molecular masses. After further incubation with a mixture of relevant HRP conjugated secondary antibodies (Santa Cruz Biotechnology), the blots were developed using ECL Plus reagent (Amersham Pharmacia; Piscataway, N.J.) and signals quantified using Quantity One software (BioRad). Detailed information and protocols of the Kinetworks™ analysis can be found at the Kinexus Bioinformatics Corporations website.

[8] = system: PKR T451; test: Kinetworks KPSS 2.1 phosphorylation screen, PKR T451; format: cell-based, rat; details: 1 μM for 5 minutes
Protocol: as §2

[9] = system: MEK1 S298; test: Kinetworks KPSS 2.1 phosphorylation screen, MEK1 S298; format: cell-based, rat; details: 1 μM for 5 minutes
Protocol: as §1

[10] = system: RGC-5 cells; test: Cell number by MTT assay; format: cell-based, rat
Protocol: Cell number: Cells were plated in 96 well plates and 3-(4,5-dimethylthiazol-2-yl)-2,5-diphenyltetrazolium bromide (MTT) added immediately to a final concentration of 500 μg/ml. Plates were incubated for 5 hours at 37° C. The media was then replaced with 200 μl of DMSO, which was pipetted up and down to dissolve the formazan crystals, and the plate incubated at 37° C. for 5 minutes. Absorbance was measured at 550 nm on a THERMOmax™ microplate reader (Molecular Devices; Sunnyvale, Calif.). All readings were normalized to a standard curve derived from known numbers of cells.

[11] = system: NMDA-R1; test: Immunocytochemistry for NMDA-R1 in RGC-5 cells; format: cell-based, rat; details: differentiated vs undifferentiated cells, twenty-four hours
Protocol: (§3) Immunocytochemistry: Differentiated RGC-5 cells plated on coverslips were fixed with 4% paraformaldehyde (Fisher) in PBS, pH 7.2 for 20 minutes at room temperature, rapidly rinsed with Tris-buffered saline (TBS; 100 mM Tris, pH 7.6, 0.9% NaCl) 3 times for a few seconds each and 2 times for 5 minutes each, and blocked with 5% normal goat serum (BioWhittaker) in TBS for 30 minutes at room temperature. The NMDA-R1 receptor was detected by incubating with purified mouse monoclonal anti-NMDA-R1 antibody (BD Biosciences; San Jose, Calif.; clone 54.1) at 2.5 μg/ml overnight at room temperature, followed by Alexa Fluor™ 594 goat anti-mouse IgG at 10 μg/ml in blocking buffer at room temperature for 90 minutes. Alexa Fluor™ 594 fluorescence was detected with a Texas Red filter set (excitation 560±20 nm, dichroic 595 nm long-pass, emission 630±30 nm). Thy-1 was detected after fixing and blocking by incubating with rabbit anti-Thy-1 polyclonal IgG (Santa Cruz Biotechnology; Santa Cruz, Calif.) at 20 μg/ml overnight at 4° C., followed by Alexa Fluor 488 goat anti-rabbit IgG at 4 μg/ml at room temperature for 60 minutes. Alexa Fluor 488 fluorescence was detected with a FITC filter set (excitation 470±20 nm, dichroic 505 nm long-pass, emission 540±20 nm) filter set. […]

[12] = system: Thy-1; test: Immunocytochemistry for Thy-1 in RGC-5 cells; format: cell-based, rat; details: differentiated vs undifferentiated cells, twenty-four hours
Protocol: as §3

[13] = system: Thy-1; test: Immunoblot analysis of Thy-1 in RGC-5 cells; details: 316 nM for three days
Protocol: (§4) After transfer, the membrane was blocked with 5% non-fat milk in TBS (pH 8.0) for 30-60 minutes, and then probed with primary antibodies to RGC marker proteins in blocking buffer. Antibodies used included purified rabbit polyclonal anti-microtubule-associated protein 2 (1:2000; Chemicon; Temecula, Calif.), polyclonal rabbit anti-Thy-1 (1:100; Santa Cruz Biotechnology), and polyclonal rabbit anti-actin (1:1000; Sigma). Blots were rinsed 3 times with TBS containing 0.05% Tween-20 (Fisher Scientific), then washed 5 times for 10 minutes each at room temperature on an orbital shaker. Secondary antibodies used were purified HRP-conjugated goat anti-rabbit IgG and purified HRP-conjugated goat anti-mouse IgG (1:5000; Jackson Immunoresearch Laboratories; West Grove, Pa.), and were incubated for 1 hour at room temperature, followed by 3 rinses and five 10 minute washes with TBS containing Tween-20 at room temperature on an orbital shaker. […] The blots were then exposed to Kodak BioMax XAR film (Eastman Kodak Company; Rochester, N.Y.) and developed. The films were scanned at 1600 dpi and band density was determined by comparing total intensity in an area containing the band of interest to the intensity of an equal size area of background using NIH ImageJ software. Band density readings are presented with respect to the density of the band from the control, untreated cell condition.

[14] = system: CDK1 T14/Y15; test: Kinetworks KPSS 2.1 phosphorylation screen, CDK1 T14/Y15; format: cell-based, rat; details: 1 μM for 5 minutes
Protocol: as §2

[15] = system: microtubule-associated protein 2 (MAP-2); test: Immunoblot analysis of MAP-2 in RGC-5 cells; details: 316 nM for three days
Protocol: as §4

[16] = system: ERK1 T202/Y204; test: Kinetworks KPSS 2.1 phosphorylation screen, ERK1 T202/Y204; format: cell-based, rat; details: 1 μM for 5 minutes
Protocol: as §2

[17] = 1 hr [24 hr], cells with large conductance

O=S(=O)(NCCNC/C=C/c1ccc(Br)cc1)c1cccc2cnccc12 [H-89]
Ki [1]: 50 nM
differentiation-inducing activity in RGC-5 cells [2]: weak differentiation inducers
neurites expressed ([2]; RGC-5 cells, 56.2 μM): 1.80±0.16 neurites
rounding of the cell soma [2]: did not produce rounding of the cell soma

Cc1cncc2cccc(S(=O)(=O)N3CCCNC[C@@H]3C)c12 [H-1152]
Ki [3]: 1.6 nM
differentiation-inducing activity in RGC-5 cells [2]: weak differentiation inducers
neurites expressed ([2]; RGC-5 cells, 1 μM): 1.06±0.15 neurites
rounding of the cell soma [2]: did not produce rounding of the cell soma

COC(=O)C[C@H](NC(=O)[C@H](C)NC(=O)[C@@H](NC(=O)OCc1ccccc1)C(C)C)C(=O)CF [ZVAD-fmk] (Cbz-Val-Ala-Asp(OMe)-CH2F)
effect of pretreatment on differentiation with SS [2]: did not inhibit differentiation with SS
differentiation of undifferentiated cells by the agent alone ([2]; without staurosporine): did not differentiate

C[C@H](CCC(=O)O)C[C@H](C)C[C@H](C)C(=O)/C=C(\O)[C@H](C)C[C@H](C)C/C=C/[C@@H](C)[C@@H](O)[C@@H](C)[C@@H](O)C[C@@H]1CC[C@@](C)([C@H]2CC[C@@](C)([C@@H](C)O)O2)O1 [ionomycin]
morphological evidence of differentiation ([2]; 20 μM): None resulted in morphological evidence of differentiation
nuclear condensation (Hoechst 33258) [4]: induced nuclear condensation

C=C(C)[C@H]1Cc2c(ccc3c2O[C@@H]2COc4cc(OC)c(OC)cc4[C@@H]2C3=O)O1 [rotenone]
morphological evidence of differentiation ([2]; 10 μM): None resulted in morphological evidence of differentiation

CN[C@@H]1C[C@H]2O[C@@](C)([C@@H]1OC)n1c3ccccc3c3c4c(c5c6ccccc6n2c5c31)C(=O)NC4 [staurosporine]
conductance of outward currents at +90 mV ([5]; 1 hr [24 hr], untreated 3.1±0.5): 14±5 nS
apparent half-activation voltage (Boltzmann fit) [5, 17]: +48 mV
maximal conductance (Boltzmann fit) [5, 17]: 26 nS
apparent capacitance ([5]; 1 hr [24 hr], untreated 28±2): 31±5 pF
resting potential ([5]; 1 hr [24 hr], untreated −34±0.5): −27±9 mV
resting potential ([5]; 1 hr [48 hr]): −9±6 mV
conductance of outward currents at +90 mV ([5]; 1 hr [48 hr]): 7±3 nS
input resistance ([5]; 1 hr [48 hr], n=4): 322±89 MΩ
apparent capacitance ([5]; 1 hr [48 hr], p<0.05): 44±3 pF
apparent capacitance ([5]; 22 hr [2 hr]): 38±3
resting potential ([5]; 22 hr [2 hr]): −11±3
conductance of outward currents at +90 mV ([5]; 22 hr [2 hr]): 5±3 nS
increase in phosphorylation of S722 of FAK vs sham-treated cells [6]: 90%
increase in phosphorylation of c-Kit Y703 vs control [7]: 43%
decrease in phosphorylation of PKR T451 vs control [8]: 100%
decrease in phosphorylation of MEK1 S298 vs control [9]: 100%
cell number (MTT) ([10]; 1 hour after culture): 7133±266 cells
cell number (MTT) ([10]; twenty-four hours): 10,094±1023 cells
NMDA-R1 labeling [11]: visibly more intense staining
Thy-1 labeling [12]: visibly more intense staining
Thy-1 level (Western blot) [13]: increased levels
increase in phosphorylation of CDK1 T14/Y15 vs control [14]: 64%
MAP-2 level (Western blot) [15]: increased levels
differentiation-inducing activity in RGC-5 cells [2]: strong differentiation inducer
neurite branching ([2]; 316 nM): minimally branched neurites
differentiation after short exposure ([2]; 1 μM for sixty seconds, then fresh media until twenty-four hours from treatment): definite morphological signs of differentiation
concentrations frequently toxic (necrotic cell body, blebbing and disruption of the neurite tree) ([2]; RGC-5 cells): higher than 1.78 μM
neurites per cell ([2]; RGC-5 cells, 1 μM, average±SEM from 50 cells): 2.94±0.11 neurites per cell
average and total process length ([2]; high (3.16 μM) concentration): average and total process length decreased somewhat
neurite branching ([2]; high (3.16 μM) concentration): neurite branching was greater
average and total neurite outgrowth ([2]; moderate (1 μM) concentration): promoted longer average and total neurite outgrowth
nuclear condensation (Hoechst 33258) [4]: the same as controls, with finely granular nuclei that were not compacted
phosphorylation of ERK1 T202/Y204 vs control [16]: not present in control

C/C=C(/C)C(=O)O[C@H]1C(C)=C2[C@H]([C@@H]1OC(=O)CCCCCCC)[C@@](C)(OC(C)=O)C[C@H](OC(=O)CCC)[C@@]1(O)[C@H]2OC(=O)[C@@]1(C)O [thapsigargin, Thapsigargin]
cell shape ([2]; 10 μM): did cause cells to become more spindle-shaped
morphological evidence of differentiation ([2]; 10 μM): None resulted in morphological evidence of differentiation

— US7303915B2, “In vitro-differentiated retinal ganglion cells and method for producing same” (Wisconsin Alumni Research Foundation, priority 2005, dated 2007)
